Measurements from US20230230698A1, “ANTIMICROBIAL CHOICE ALGORITHM FOR URINARY TRACT INFECTIONS” (Northwestern University, priority 2020, published 2023).
Where two headings read alike, the source gives them in different places.

What was measured:
uropathogen [1] = experiment: Urine culture antimicrobial susceptibility (Vitek 2), women outpatients with uncomplicated UTI; type: cell-based; settings: for Overall prevalence of resistance / proportion of patients resistant: uncomplicated UTI; for Overall prevalence of resistance: 2011-2017 cohort, 9,455 positive cultures (>=10^3 CFU/mL), resistant or intermediate susceptibility; for proportion of patients resistant: 2018 testing cohort, 1,427 women, Chicago ZIP code; for proportion with culture susceptible, theoretical scenario of all patients receiving the drug / proportion with culture susceptible if everyone was prescribed the drug: 2018 cohort; for proportion with culture susceptible, theoretical scenario of all patients receiving the drug: 258 patients with prior microbiologic data; for proportion with culture susceptible, theoretical scenario of all patients being prescribed the drug: 2018 cohort, 1,169 patients without prior microbiologic data; for proportion with culture susceptible if everyone was prescribed the drug: all 1,427 patients
Excerpt: Data were obtained from the Northwestern Medicine Enterprise Data Warehouse, which is a data integration warehouse designed for research and clinical operations. […] Cultures were included in analysis if positive (identified uropathogen≥10^3 colony forming units per milliliter (CFU/mL)) and antimicrobial susceptibilities reported for the dominant species. The colony count cutoff of ≥10^3 CFU/mL was used as it has been noted that low thresholds have appropriate diagnostic value for women with symptoms of a UTI.^5, 17, 18 The Northwestern Medicine Institutional Review Board approved this study (STU00207763).
All specimen collection and testing were done uniformly in accordance with Northwestern Medicine Guidelines. Isolation, colony count and identification testing were performed using Vitek 2 cards (bioMérieux).
For the 2011-2017 patients, outcomes of interest were uropathogen resistance (defined as resistant or intermediate susceptibility) to SXT, NIT and CIP. Covariates were patient demographics (age, race and patient's place of residence (ZIP code)) antimicrobial prescriptions within the past two years, diagnosis codes associated with current and past encounters, past urine culture results and department to which they presented. Risk factors were compared between patients who had resistant and sensitive cultures using two-sample t-tests (continuous variables) and chi-squared tests (categorical variables). Multivariate logistic regression models were used to investigate the association between risk factors and resistant cultures. Odds ratios (OR) were derived from these models to determine the probability of having a resistant culture with those factors.
The algorithms developed using the above-described cohort were then tested on the 2018 cohort. […] All analyses were done using R (version 3.5.2).

uropathogen [2] = experiment: Urine culture antimicrobial susceptibility (Vitek 2), outpatients with complicated UTI; type: cell-based; settings: for Overall prevalence of resistance: complicated UTI outpatients, 2012-2018, 2,286 cultures (>=10^3 CFU/mL), resistant or intermediate susceptibility; for proportion of patients resistant: complicated UTI, 2017-2018 testing cohort, 646 patients, Chicago ZIP code
Excerpt: Materials and Methods: We performed a retrospective, single-center, cross-sectional study of 2,286 outpatients with a diagnosed complicated UTI from 2012-2018. For patients with confirmed UTI (≥10^3 CFU/mL) with antimicrobial sensitivities, univariate analyses and multivariable regression models were used to determine odds ratios for predicting resistance to SXT, NIT, CIP, CF-1, and CF-3 for the 2012-2016 data. Antimicrobial choice algorithms were created using 2012-2016 results and tested on 2017-2018 data.
This study was approved and performed in accordance with the Northwestern Medicine Institutional Review Board (STU00207763). This is a retrospective cross-sectional study of patients aged 18 or older that submitted urine cultures as outpatients from 2012 to 2018 at any Northwestern Medicine site, which encompasses the greater Chicago area. Data were obtained from the Northwestern Medicine Enterprise Data Warehouse, which is a data integration warehouse designed for research and clinical operations. […] Patients and cultures were included only if they were linked to any ICD 9 or 10 diagnosis code in the previous two years that would have been associated with a complicated UTI^6. Patients were included exactly once based on their most recent culture, and all prior culture data were used as covariates. […] Cultures were included in analysis if positive (identified uropathogen≥10^3 colony forming units per milliliter (CFU/mL)) and antimicrobial susceptibilities were reported for the dominant species. All specimen collection and testing were done uniformly in accordance with Northwestern Medicine Guidelines. Isolation, colony count and identification testing were performed using Vitek 2 cards (bioMérieux).
For the 2012 to 2016 patients, outcomes of interest were uropathogen resistance (defined as resistant or intermediate susceptibility) to trimethoprim-sulfamethoxazole (SXT), ciprofloxacin (CIP), nitrofurantoin (NIT), first-generation cephalosporin (CF-1) and third-generation cephalosporin (CF-3). The resistance prevalence was also stratified by Chicago ZIP code for each antimicrobial.
The algorithms developed using the above-described cohort were then tested on the 2017-2018 cohort. […] Also, the predictive value of time between cultures and uropathogen concurrence between cultures was examined in this cohort^10,17. All analyses were done using R (version 3.5.2).

uropathogen [3] = experiment: Resistance in community acquired UTIs, uncomplicated and complicated combined; type: cell-based; settings: 2018
Excerpt: The prevalence of resistance for patients with complicated UTIs was compared to data from our previous publication for uncomplicated UTIs and available hospital data^17. The prevalence of resistance by ZIP code for the complicated UTI population was then compared between each antibiotic and to the distribution of prevalence by ZIP code for the uncomplicated population for the previous study, for CIP, SXT and NIT (the three antimicrobials evaluated in the previous study)^17.

uropathogen [4] = settings: 2018, both inpatient and outpatient cultures; cited from earlier work

Question: With `O=C(O)c1cn(C2CC2)c2cc(N3CCNCC3)c(F)cc2c1=O` [CIP, ciprofloxacin] as the compound, how does the “Overall prevalence of resistance” value (uropathogen [1]) read?
Answer: Its value is 10.3%.

Question: What about the “proportion of patients resistant” value (uropathogen [1]) of the same compound?
Answer: The value was 10.7%.

Question: And the “resistance, complicated UTI” value (uropathogen [2]; 2018, community acquired)?
Answer: The value was 16.2%.

Question: And the “Overall prevalence of resistance” value (uropathogen [2])?
Answer: The value was 19.4%.

Question: What about the “proportion of patients resistant” value (uropathogen [2]) of the same compound?
Answer: Its value is 18.4%.

Question: What about the “resistance for community acquired UTIs, both uncomplicated and complicated” value (uropathogen [3]) of the same compound?
Answer: The value was 11.2%.

Question: What about the “Overall prevalence of resistance” value (uropathogen [4]) of the same compound?
Answer: The value was 25%.

Question: What does the source list for `O=C1CN(/N=C/c2ccc([N+](=O)[O-])o2)C(=O)N1` [NIT, nitrofurantoin]?
Answer: proportion with culture susceptible, theoretical scenario of all patients receiving the drug (uropathogen [1]): 93.8%; proportion with culture susceptible, theoretical scenario of all patients being prescribed the drug (uropathogen [1]): 89.2%; proportion with culture susceptible if everyone was prescribed the drug (uropathogen [1]): 90.0%; Overall prevalence of resistance (uropathogen [1]): 12.1%; proportion of patients resistant (uropathogen [1]): 10.0%; Overall prevalence of resistance (uropathogen [2]): 18.9%; proportion of patients resistant (uropathogen [2]): 18.1%

Question: For trimethoprim-sulfamethoxazole [SXT], which “proportion with culture susceptible, theoretical scenario of all patients receiving the drug” value (uropathogen [1]) is on record?
Answer: Its value is 72.1%.

Question: What about the “proportion with culture susceptible, theoretical scenario of all patients being prescribed the drug” value (uropathogen [1]) of the same compound?
Answer: Its value is 79.3%.

Question: What about the “proportion with culture susceptible if everyone was prescribed the drug” value (uropathogen [1]) of the same compound?
Answer: Its value is 78.0%.

Question: And the “Overall prevalence of resistance” value (uropathogen [1])?
Answer: The value was 19.4%.

Question: What about the “proportion of patients resistant” value (uropathogen [1]) of the same compound?
Answer: Its value is 22.0%.

Question: And the “Overall prevalence of resistance” value (uropathogen [2])?
Answer: The value was 25.5%.

Question: What about the “proportion of patients resistant” value (uropathogen [2]) of the same compound?
Answer: Its value is 25.9%.
